# How the values were obtained:
# Assay in all cases: cells
# NCI-H2030 = assay type: functional, cell-based, Homo sapiens; conditions: Homo sapiens, NCI-H2030;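 note: growth inhibition of human NCI-H2030 cells, read out by a cell viability assay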
# Description: SANGER: Inhibition of human NCI-H2030 cell growth in a cell viability assay.
# A673 = assay type: functional, cell-based, Homo sapiens; conditions: Homo sapiens, A673;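 note: growth inhibition of human A673 cells, read out through a cell viability assay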
# Description: SANGER: Inhibition of human A673 cell growth in a cell viability assay.
# A-431 = assay type: functional, cell-based, Homo sapiens; conditions: Homo sapiens, A-431;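 note: growth inhibition of A-431 cells, determined with a cell viability read-out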
# Description: SANGER: Inhibition of human A431 cell growth in a cell viability assay.
# RERF-LC-MS = assay type: functional, cell-based, Homo sapiens; conditions: Homo sapiens, RERF-LC-MS;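 note: growth inhibition of human RERF-LC-MS cells, read out by a cell viability assay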
# Description: SANGER: Inhibition of human RERF-LC-MS cell growth in a cell viability assay.
# MDA-MB-361 = assay type: functional, cell-based, Homo sapiens; conditions: Homo sapiens, MDA-MB-361
# Hs-578T = assay type: functional, cell-based, Homo sapiens; conditions: Homo sapiens, Hs-578T
# Description: SANGER: Inhibition of human Hs-578-T cell growth in a cell viability assay.
# SW1417 = assay type: functional, cell-based, Homo sapiens; conditions: Homo sapiens, SW1417;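 note: growth inhibition of human SW1417 cells, read out with a cell viability assay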
# Description: SANGER: Inhibition of human SW1417 cell growth in a cell viability assay.
# DK-MG = assay type: functional, cell-based, Homo sapiens; conditions: Homo sapiens, DK-MG;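 note: growth inhibition of DK-MG cells, read out with a cell viability assay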
# Description: SANGER: Inhibition of human DK-MG cell growth in a cell viability assay.
# SW1088 = assay type: functional, cell-based, Homo sapiens; conditions: Homo sapiens, SW1088;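 note: growth inhibition of human SW1088 cells, read out by a cell viability assay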
# Description: SANGER: Inhibition of human SW1088 cell growth in a cell viability assay.
# 8305C = assay type: functional, cell-based, Homo sapiens; conditions: Homo sapiens, 8305C
# Description: SANGER: Inhibition of human 8305C cell growth in a cell viability assay.
# A498 = assay type: functional, cell-based, Homo sapiens; conditions: Homo sapiens, A498;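 note: growth inhibition of human A498 cells, read out with a cell viability assay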
# Description: SANGER: Inhibition of human A498 cell growth in a cell viability assay.
# no-10 = assay type: functional, cell-based, Homo sapiens; conditions: Homo sapiens;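 note: growth inhibition of no-10 cells, read out with a cell viability assay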
# Description: SANGER: Inhibition of human no-10 cell growth in a cell viability assay.
# BT-474 = assay type: functional, cell-based, Homo sapiens; conditions: Homo sapiens, BT-474
# Description: SANGER: Inhibition of human BT-474 cell growth in a cell viability assay.
# QIMR-WIL = assay type: functional, cell-based; conditions: Homo sapiens;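 note: growth inhibition of QIMR-WIL cells, read out with a cell viability assay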
# Description: SANGER: Inhibition of human QIMR-WIL cell growth in a cell viability assay.
# SK-MEL3 = assay type: functional, cell-based, Homo sapiens, SK-MEL-3; conditions: Homo sapiens, SK-MEL3;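 note: growth inhibition of human SK-MEL-3 cells, read out with a cell viability assay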
# Description: SANGER: Inhibition of human SK-MEL-3 cell growth in a cell viability assay.
# CAL-27 = assay type: functional, cell-based, Homo sapiens; conditions: Homo sapiens, CAL-27;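 note: Viability-based readout, IC50 reflecting inhibition of CAL-27 cell growth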
# Description: SANGER: Inhibition of human CAL-27 cell growth in a cell viability assay.
# C-33-A = assay type: functional, cell-based, Homo sapiens; conditions: Homo sapiens, C-33-A;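 note: cell viability assay measuring growth inhibition of C-33-A cells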
# Description: SANGER: Inhibition of human C-33-A cell growth in a cell viability assay.
# Calu-3 = assay type: functional, cell-based, Homo sapiens; conditions: Homo sapiens, Calu-3;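 note: growth inhibition of human Calu-3 cells, determined with a cell viability assay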
# Description: SANGER: Inhibition of human Calu-3 cell growth in a cell viability assay.
# BEN = assay type: functional, cell-based, Homo sapiens; conditions: Homo sapiens, BEN;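 note: growth inhibition of the BEN cell line, read out with a cell viability assay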
# Description: SANGER: Inhibition of human BEN cell growth in a cell viability assay.
# CAMA-1 = assay type: functional, cell-based, Homo sapiens; conditions: Homo sapiens, CAMA-1;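 note: growth inhibition of CAMA-1 cells, read out with a cell viability assay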
# Description: SANGER: Inhibition of human CAMA-1 cell growth in a cell viability assay.
# SN12C = assay type: functional, cell-based, Homo sapiens; conditions: Homo sapiens, SN12C;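 note: growth inhibition of human SN12C cells, measured by a cell viability assay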
# Description: SANGER: Inhibition of human SN12C cell growth in a cell viability assay.
# PANC-03-27 = assay type: functional, cell-based, Homo sapiens; conditions: Homo sapiens, PANC-03-27
# Description: SANGER: Inhibition of human PANC-03-27 cell growth in a cell viability assay.
# D-336MG = assay type: functional, cell-based, Homo sapiens; conditions: Homo sapiens, D-336MG
# Description: SANGER: Inhibition of human D-336MG cell growth in a cell viability assay.
# SW13 = assay type: functional, cell-based, Homo sapiens; conditions: Homo sapiens, SW13;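 note: IC50 is inhibition of SW13 cell growth, read out with a cell viability assay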
# Description: SANGER: Inhibition of human SW13 cell growth in a cell viability assay.
# HSC-3 = assay type: functional, cell-based, Homo sapiens; conditions: Homo sapiens, HSC-3
# Description: SANGER: Inhibition of human HSC-3 cell growth in a cell viability assay.
# MSTO-211H = assay type: functional, cell-based, Homo sapiens; conditions: Homo sapiens, MSTO-211H
# Description: SANGER: Inhibition of human MSTO-211H cell growth in a cell viability assay.
# NCI-H2052 = assay type: functional, cell-based, Homo sapiens; conditions: Homo sapiens, NCI-H2052;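 note: growth inhibition of NCI-H2052 cells, read out with a cell viability assay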
# Description: SANGER: Inhibition of human NCI-H2052 cell growth in a cell viability assay.
# EW-1 = assay type: functional, cell-based, Homo sapiens; conditions: Homo sapiens, EW-1;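 note: growth inhibition of the human EW-1 cell line, read out by a cell viability assay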
# Description: SANGER: Inhibition of human EW-1 cell growth in a cell viability assay.
# D-392MG = assay type: functional, cell-based, Homo sapiens; conditions: Homo sapiens, D-392MG
# LN-405 = assay type: functional, cell-based, Homo sapiens; conditions: Homo sapiens, LN-405
# Description: SANGER: Inhibition of human LN-405 cell growth in a cell viability assay.
# HLE = assay type: functional, cell-based, Homo sapiens; conditions: Homo sapiens, HLE;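 note: growth inhibition of human HLE cells, read out by a cell viability assay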
# Description: SANGER: Inhibition of human HLE cell growth in a cell viability assay.
# EKVX = assay type: functional, cell-based, Homo sapiens; conditions: Homo sapiens, EKVX;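 note: growth inhibition of human EKVX cells, read out with a cell viability assay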
# Description: SANGER: Inhibition of human EKVX cell growth in a cell viability assay.
# NCI-H226 = assay type: functional, cell-based, Homo sapiens; conditions: Homo sapiens, NCI-H226;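 note: cell viability read-out used to gauge growth inhibition of the cells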
# Description: SANGER: Inhibition of human NCI-H226 cell growth in a cell viability assay.
# COR-L105 = assay type: functional, cell-based, Homo sapiens; conditions: Homo sapiens, COR-L105;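 note: cell growth inhibition determined with a viability assay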
# Description: SANGER: Inhibition of human COR-L105 cell growth in a cell viability assay.
# HT-1376 = assay type: functional, cell-based, Homo sapiens; conditions: Homo sapiens, HT-1376
# Description: SANGER: Inhibition of human HT-1376 cell growth in a cell viability assay.
# TCC-SUP = assay type: functional, cell-based, Homo sapiens; conditions: Homo sapiens, TCC-SUP;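 note: growth inhibition of TCC-SUP cells, read out with a cell viability assay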
# Description: SANGER: Inhibition of human TCCSUP cell growth in a cell viability assay.
# SK-HEP1 = assay type: functional, cell-based, Homo sapiens, SK-HEP-1; conditions: Homo sapiens, SK-HEP1;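 note: cell viability readout used to quantify reduction in proliferation of human SK-HEP-1 cells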
# Description: SANGER: Inhibition of human SK-HEP-1 cell growth in a cell viability assay.
# NCI-H596 = assay type: functional, cell-based, Homo sapiens; conditions: Homo sapiens, NCI-H596;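 note: growth inhibition of NCI-H596 cells, read out with a cell viability assay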
# Description: SANGER: Inhibition of human NCI-H596 cell growth in a cell viability assay.
# Mo = assay type: functional, cell-based; conditions: Homo sapiens
# Description: SANGER: Inhibition of human Mo-T cell growth in a cell viability assay.
# LU-99A = assay type: functional, cell-based, Homo sapiens; conditions: Homo sapiens, LU-99A;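 note: growth inhibition of LU-99A cells, read out with a cell viability assay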
# Description: SANGER: Inhibition of human LU-99A cell growth in a cell viability assay.
# SNB-75 = assay type: functional, cell-based, Homo sapiens; conditions: Homo sapiens, SNB-75;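 note: cell viability assay measuring growth inhibition of human SNB-75 cells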
# Description: SANGER: Inhibition of human SNB75 cell growth in a cell viability assay.
# C3A = assay type: functional, cell-based, Homo sapiens; conditions: Homo sapiens, C3A;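 note: growth inhibition of C3A human cells, quantified with a cell viability readout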
# Description: SANGER: Inhibition of human C3A cell growth in a cell viability assay.
# PC-14 = assay type: functional, cell-based, Homo sapiens; conditions: Homo sapiens, PC-14;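 note: cell viability assay measuring inhibition of PC-14 cell growth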
# Description: SANGER: Inhibition of human PC-14 cell growth in a cell viability assay.
# MDA-MB-415 = assay type: functional, cell-based; conditions: Homo sapiens
# CAL-54 = assay type: functional, cell-based, Homo sapiens; conditions: Homo sapiens, CAL-54;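 note: growth inhibition of CAL-54 cells, read out by a viability measurement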
# Description: SANGER: Inhibition of human CAL-54 cell growth in a cell viability assay.
# TGBC24TKB = assay type: functional, cell-based, Homo sapiens; conditions: Homo sapiens, TGBC24TKB;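 note: growth inhibition of human TGBC24TKB cells, read out with a cell viability assay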
# Description: SANGER: Inhibition of human TGBC24TKB cell growth in a cell viability assay.
# COLO-679 = assay type: functional, cell-based, Homo sapiens; conditions: Homo sapiens, COLO-679
# Description: SANGER: Inhibition of human COLO-679 cell growth in a cell viability assay.
structure (smiles),measurement,setting,value
CCOc1nc(NC(=O)Cc2cc(OC)ccc2OC)cc(N)c1C#N,IC50,NCI-H2030,> 10 µM
same,IC50,A673,> 10 µM
same,IC50,A-431,> 10 µM
same,IC50,RERF-LC-MS,> 10 µM
same,IC50,MDA-MB-361,> 10 µM
same,IC50,Hs-578T,> 10 µM
same,IC50,SW1417,> 10 µM
same,IC50,DK-MG,> 10 µM
same,IC50,SW1088,> 10 µM
same,IC50,8305C,> 10 µM
same,IC50,A498,> 10 µM
same,IC50,no-10,> 10 µM
same,IC50,BT-474,> 10 µM
same,IC50,QIMR-WIL,> 10 µM
same,IC50,SK-MEL3,> 10 µM
same,IC50,CAL-27,> 10 µM
same,IC50,C-33-A,> 10 µM
same,IC50,Calu-3,> 10 µM
same,IC50,BEN,> 10 µM
same,IC50,CAMA-1,> 10 µM
same,IC50,SN12C,> 10 µM
same,IC50,PANC-03-27,> 10 µM
same,IC50,D-336MG,> 10 µM
same,IC50,SW13,> 10 µM
same,IC50,HSC-3,> 10 µM
same,IC50,MSTO-211H,> 10 µM
same,IC50,NCI-H2052,> 10 µM
same,IC50,EW-1,> 10 µM
same,IC50,D-392MG,> 10 µM
same,IC50,LN-405,> 10 µM
same,IC50,HLE,> 10 µM
same,IC50,EKVX,> 10 µM
same,IC50,NCI-H226,> 10 µM
same,IC50,COR-L105,> 10 µM
same,IC50,HT-1376,> 10 µM
same,IC50,TCC-SUP,> 10 µM
same,IC50,SK-HEP1,> 10 µM
same,IC50,NCI-H596,> 10 µM
same,IC50,Mo,> 10 µM
same,IC50,LU-99A,> 10 µM
same,IC50,SNB-75,> 10 µM
same,IC50,C3A,> 10 µM
same,IC50,PC-14,> 10 µM
same,IC50,MDA-MB-415,> 10 µM
same,IC50,CAL-54,> 10 µM
same,IC50,TGBC24TKB,> 10 µM
same,IC50,COLO-679,> 10 µM
O=C1N=C(NCc2cccs2)S/C1=C\c1ccc2ncccc2c1,IC50,NCI-H2030,> 5 µM
same,IC50,A673,> 5 µM
same,IC50,A-431,> 5 µM
same,IC50,RERF-LC-MS,> 5 µM
same,IC50,MDA-MB-361,> 5 µM
same,IC50,Hs-578T,2.28 µM
same,IC50,SW1417,> 5 µM
same,IC50,DK-MG,> 5 µM
same,IC50,SW1088,> 5 µM
same,IC50,8305C,> 5 µM
same,IC50,A498,> 5 µM
same,IC50,no-10,> 5 µM
same,IC50,BT-474,> 5 µM
same,IC50,QIMR-WIL,> 5 µM
same,IC50,SK-MEL3,> 5 µM
same,IC50,CAL-27,> 5 µM
same,IC50,C-33-A,> 5 µM
same,IC50,Calu-3,> 5 µM
same,IC50,BEN,> 5 µM
same,IC50,CAMA-1,> 5 µM
same,IC50,SN12C,> 5 µM
same,IC50,PANC-03-27,> 5 µM
same,IC50,D-336MG,> 5 µM
same,IC50,SW13,> 5 µM
same,IC50,HSC-3,> 5 µM
same,IC50,MSTO-211H,> 5 µM
same,IC50,NCI-H2052,> 5 µM
same,IC50,EW-1,> 5 µM
same,IC50,D-392MG,> 5 µM
same,IC50,LN-405,> 5 µM
same,IC50,HLE,> 5 µM
same,IC50,EKVX,> 5 µM
same,IC50,NCI-H226,> 5 µM
same,IC50,COR-L105,> 5 µM
same,IC50,HT-1376,> 5 µM
same,IC50,TCC-SUP,> 5 µM
same,IC50,SK-HEP1,> 5 µM
same,IC50,NCI-H596,> 5 µM
same,IC50,Mo,> 5 µM
same,IC50,LU-99A,> 5 µM
same,IC50,SNB-75,> 5 µM
same,IC50,C3A,> 5 µM
same,IC50,PC-14,> 5 µM
same,IC50,MDA-MB-415,> 5 µM
same,IC50,CAL-54,> 5 µM
same,IC50,TGBC24TKB,> 5 µM
same,IC50,COLO-679,> 5 µM
O=c1cc(-c2cccc3c2Sc2ccccc2S3)oc(N2CCOCC2)c1 [KU-55933],IC50,NCI-H2030,> 10 µM
same,IC50,A673,> 10 µM
same,IC50,A-431,> 10 µM
same,IC50,RERF-LC-MS,> 10 µM
same,IC50,MDA-MB-361,> 10 µM
same,IC50,Hs-578T,> 10 µM
same,IC50,SW1417,> 10 µM
same,IC50,DK-MG,> 10 µM
same,IC50,SW1088,> 10 µM
same,IC50,8305C,> 10 µM
same,IC50,A498,> 10 µM
same,IC50,no-10,> 10 µM
same,IC50,BT-474,> 10 µM
same,IC50,QIMR-WIL,> 10 µM
same,IC50,SK-MEL3,8.29 µM
same,IC50,CAL-27,> 10 µM
same,IC50,C-33-A,> 10 µM
same,IC50,Calu-3,> 10 µM
same,IC50,BEN,> 10 µM
same,IC50,CAMA-1,> 10 µM
same,IC50,SN12C,> 10 µM
same,IC50,PANC-03-27,> 10 µM
same,IC50,D-336MG,> 10 µM
same,IC50,SW13,> 10 µM
same,IC50,HSC-3,> 10 µM
same,IC50,MSTO-211H,> 10 µM
same,IC50,NCI-H2052,> 10 µM
same,IC50,EW-1,> 10 µM
same,IC50,D-392MG,> 10 µM
same,IC50,LN-405,> 10 µM
same,IC50,HLE,> 10 µM
same,IC50,EKVX,> 10 µM
same,IC50,NCI-H226,> 10 µM
same,IC50,COR-L105,> 10 µM
same,IC50,HT-1376,> 10 µM
same,IC50,TCC-SUP,> 10 µM
same,IC50,SK-HEP1,> 10 µM
same,IC50,NCI-H596,> 10 µM
same,IC50,Mo,> 10 µM
same,IC50,LU-99A,> 10 µM
same,IC50,SNB-75,> 10 µM
same,IC50,C3A,> 10 µM
same,IC50,PC-14,> 10 µM
same,IC50,MDA-MB-415,> 10 µM
same,IC50,CAL-54,> 10 µM
same,IC50,TGBC24TKB,> 10 µM
same,IC50,COLO-679,> 10 µM

# — ChEMBL document CHEMBL1201861, “Genomics of Drug Sensitity in Cancer screening data, Wellcome Trust Sanger Institute”
